Source: patent publication US11261201B2 (priority 2018, dated 2022)
In brackets after ≈: the same amount, converted by molar mass. Structures can show the parent of a compound that is named as a salt. Where two headings read alike, the source gives them in different places.

Experiments:
[1] = test system: A. baumannii; experiment: Gram negative MIC protocol (OD600, LB, 24 h); settings: Acinetobacter baumannii
Method: (§1) Overnight bacterial cultures were grown in LB with no added antibiotics at 37° C. with shaking. A 1:1000 dilution of these cultures into LB was exposed to concentration gradients of compounds in 96-well plates (100 μL per well assay volume). Resulting plates were incubated at 37° C. for 24 h without shaking, and OD600 was measured at the end of the incubation. MICs were determined as the lowest concentrations at which OD600 remained at baseline.

[2] = test system: E. coli; experiment: Gram negative MIC protocol (OD600, LB, 24 h); settings: Escherichia coli
Method: as §1

[3] = test system: H37RvMA; experiment: Tuberculosis Alamar Blue/Resazurin assay (MIC); assay type: cell-based; settings: Mycobacterium tuberculosis, H37RV, read-out: WT H37Rv MTB Activity
[4] = read-out: MIC A. baumannii LB Media, A. baumannii, LB media, 24 h, OD600
[5] = read-out: MIC E. coli delta-TolC LB Media, E. coli delta-TolC, LB media, OD600
[6] = read-out: MIC WT E. coli LB Media, WT E. coli, LB media, OD600
[7] = read-out: MIC E. coli delta-TolC LB Media, E. coli delta-TolC strain, LB media, 24 h, OD600
[8] = read-out: MIC WT E. coli LB Media, wild-type E. coli, LB media, 24 h, OD600
[9] = read-out: MIC A. baumannii LB Media

CC(NCc1ccccc1)C12C[C@H]3C[C@H](C1)C[C@@H](C2)C3 (stereo partly shown) [B80]
MIC [1, 4]: > 150 µM
MIC [2, 5]: 90 µM (≈ 24.2 µg/mL)
MIC [2, 6]: 250 µM (≈ 67.4 µg/mL)
MIC ([3]; WT H37Rv MTB): > 150 µM

CC(C)(CN1CCCOCC1)NCc1ccccc1 [B90]
MIC [1, 4]: > 150 µM
MIC [2, 5]: > 150 µM
MIC [2, 6]: > 150 µM
MIC ([3]; WT H37Rv MTB): > 150 µM

OC1(CCNCc2ccccc2)CC2CCC1C2 (stereo not shown) [B60]
MIC [1, 4]: > 150 µM
MIC [2, 5]: > 150 µM
MIC [2, 6]: > 150 µM
MIC ([3]; WT H37Rv MTB): > 150 µM

c1ccc(CNCC2CCCCCC2)cc1 [B99]
MIC [1, 4]: > 150 µM
MIC [2, 5]: > 150 µM
MIC [2, 6]: > 150 µM
MIC ([3]; WT H37Rv MTB): 55 µM (≈ 12 µg/mL)

CCc1ccccc1CNCCC1CCCCC1 [B228, 2-cyclohexyl-N-(2-ethylbenzyl)ethanamine hydrochloride]
MIC [1, 4]: 300 µM
MIC [2, 7]: 20 µM
MIC [2, 8]: 170 µM
MIC ([3]; WT H37Rv MTB): 91 µM

c1ccc(CNCCC2CCOC2)cc1 (stereo not shown) [B40]
MIC [1, 4]: > 150 µM
MIC [2, 5]: > 150 µM
MIC [2, 6]: > 150 µM
MIC ([3]; WT H37Rv MTB): > 150 µM

c1ccc(CNC2CCCCC2)cc1 [B7]
MIC [1, 4]: > 150 µM
MIC [2, 5]: > 150 µM
MIC [2, 6]: > 150 µM
MIC ([3]; WT H37Rv MTB): > 150 µM

OCC(CC1CCCCC1)NCc1ccccc1 (stereo not shown) [B168, 2-(benzylamino)-3-cyclohexylpropan-1-ol]
MIC [1, 9]: 410 µM (≈ 101 µg/mL)
MIC [2, 5]: 182 µM (≈ 45 µg/mL)
MIC [2, 6]: 170 µM (≈ 42.1 µg/mL)
MIC [3]: > 150 µM

CC(CC1CC1)NCc1ccccc1 (stereo not shown) [B34]
MIC [1, 4]: > 150 µM
MIC [2, 5]: > 150 µM
MIC [2, 6]: > 150 µM
MIC ([3]; WT H37Rv MTB): > 150 µM

Cc1nonc1COc1ccccc1CNC(C)CC1CCCCC1 (stereo not shown) [B245]
MIC [1, 4]: 150 µM (≈ 51.5 µg/mL)
MIC [2, 7]: 4 µM (≈ 1.37 µg/mL)
MIC [2, 8]: 150 µM (≈ 51.5 µg/mL)
MIC ([3]; WT H37Rv MTB): 150 µM (≈ 51.5 µg/mL)

CC1CC(C)CC(C(C)NCc2ccccc2)C1 (stereo not shown) [B79]
MIC [1, 4]: > 150 µM
MIC [2, 5]: > 150 µM
MIC [2, 6]: > 150 µM
MIC ([3]; WT H37Rv MTB): 91 µM (≈ 22.3 µg/mL)

c1ccc(CNCCc2ccc3[nH]ccc3c2)cc1 [B56]
MIC [1, 9]: > 150 µM
MIC [2, 5]: > 150 µM
MIC [2, 6]: > 150 µM
MIC [3]: > 150 µM

O=C1CCc2ccccc2CN1CCC1CCCCC1 [B425, 2-(2-cyclohexylethyl)-1,2,4,5-tetrahydro-3H-benzo[c]azepin-3-one]
MIC [1, 4]: > 150 µM
MIC [2, 5]: 33 µM (≈ 8.96 µg/mL)
MIC [2, 6]: > 150 µM
MIC ([3]; WT H37Rv MTB): > 150 µM

C1=C(CC2CCCCN2Cc2ccccc2)CCCC1 (stereo not shown) [B163]
MIC [1, 4]: > 150 µM
MIC [2, 5]: 300 µM (≈ 80.8 µg/mL)
MIC [2, 6]: > 300 µM
MIC ([3]; WT H37Rv MTB): > 150 µM

COc1ccc(C(C)CNCc2ccccc2)cc1OC (stereo not shown) [B44]
MIC [1, 4]: > 150 µM
MIC [2, 5]: > 150 µM
MIC [2, 6]: > 150 µM
MIC [3]: > 150 µM

CC(CC1CCCCC1)NCc1ccccc1OCC(=O)NCC1CC1 (stereo not shown) [B284]
MIC [1, 4]: > 150 µM
MIC [2, 7]: 7 µM (≈ 2.51 µg/mL)
MIC [2, 8]: > 150 µM
MIC ([3]; WT H37Rv MTB): > 150 µM

CC(CC1CCCCC1)NCc1ccccc1OCC(N)=O (stereo not shown) [B338]
MIC [1, 4]: > 150 µM
MIC [2, 7]: 12 µM (≈ 3.65 µg/mL)
MIC [2, 8]: 91 µM (≈ 27.7 µg/mL)
MIC ([3]; WT H37Rv MTB): > 150 µM

c1ccc(CNCCc2ccc3cc[nH]c3c2)cc1 [B114]
MIC [1, 9]: > 150 µM
MIC [2, 5]: > 150 µM
MIC [2, 6]: > 150 µM
MIC [3]: > 150 µM

c1ccc(CNCCC2CCCCC2)cc1 [B132]
MIC [1, 4]: 150 µM (≈ 32.6 µg/mL)
MIC [2, 5]: 85 µM (≈ 18.5 µg/mL)
MIC [2, 6]: 124 µM (≈ 27 µg/mL)
MIC ([3]; WT H37Rv MTB): > 150 µM

c1ccc(C2CC2)c(CNCCC2CCCCC2)c1 [B233, 2-cyclohexyl-N-(2-cyclopropylbenzyl)ethanamine hydrochloride]
MIC [1, 4]: 170 µM
MIC [2, 7]: 10 µM
MIC [2, 8]: 300 µM
MIC ([3]; WT H37Rv MTB): 91 µM

CC(CC1CCCCC1)NCc1ccccc1OCc1cn2ccccc2n1 (stereo not shown) [B244]
MIC [1, 4]: 150 µM (≈ 56.6 µg/mL)
MIC [2, 7]: 3 µM (≈ 1.13 µg/mL)
MIC [2, 8]: 91 µM (≈ 34.4 µg/mL)
MIC ([3]; WT H37Rv MTB): 150 µM (≈ 56.6 µg/mL)

c1ccc(CNCCC2CCOCC2)cc1 [B25]
MIC [1, 4]: > 150 µM
MIC [2, 5]: > 150 µM
MIC [2, 6]: > 150 µM
MIC ([3]; WT H37Rv MTB): > 150 µM

c1ccc(CNCC2CC23CCCc2ccccc23)cc1 (stereo not shown) [B107]
MIC [1, 4]: > 150 µM
MIC [2, 5]: > 150 µM
MIC [2, 6]: > 150 µM
MIC ([3]; WT H37Rv MTB): > 150 µM

CC(CC1CCCCC1)NCc1ccccc1OCc1cscn1 (stereo not shown) [B292]
MIC [1, 4]: > 150 µM
MIC [2, 7]: 4 µM (≈ 1.38 µg/mL)
MIC [2, 8]: > 150 µM
MIC ([3]; WT H37Rv MTB): 150 µM (≈ 51.7 µg/mL)

CC(CC1CCCCC1)NCc1ccccc1CC(N)C(=O)O (stereo not shown) [B466, 2-amino-3-(2-(((1-cyclohexylpropan-2-yl)amino)methyl)phenyl)propanoic acid]
MIC [1, 4]: > 150 µM
MIC [2, 5]: > 150 µM
MIC [2, 6]: > 150 µM
MIC ([3]; WT H37Rv MTB): > 55 µM
